In PubChem BioAssay AID1645868 (Buhrlage Lab, Dana-Farber Cancer Institute and Novartis …, 2021) one finds IC50 data, which are given here for 63 compounds.

By IC50 is commonly meant the concentration at which inhibition is half-maximal.

Activity calls are given as the source filed them.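 The calls were made as follows: active = maximal percent inhibition of the deubiquitinase OTUD3 of at least 30% across the tested doses; inactive = the rest.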 Bounds are passed on as bounds.

Sequence of OTU domain-containing protein 3 (Homo sapiens) (Q5T2D3 whole entry, looked up, the tested form may be a part): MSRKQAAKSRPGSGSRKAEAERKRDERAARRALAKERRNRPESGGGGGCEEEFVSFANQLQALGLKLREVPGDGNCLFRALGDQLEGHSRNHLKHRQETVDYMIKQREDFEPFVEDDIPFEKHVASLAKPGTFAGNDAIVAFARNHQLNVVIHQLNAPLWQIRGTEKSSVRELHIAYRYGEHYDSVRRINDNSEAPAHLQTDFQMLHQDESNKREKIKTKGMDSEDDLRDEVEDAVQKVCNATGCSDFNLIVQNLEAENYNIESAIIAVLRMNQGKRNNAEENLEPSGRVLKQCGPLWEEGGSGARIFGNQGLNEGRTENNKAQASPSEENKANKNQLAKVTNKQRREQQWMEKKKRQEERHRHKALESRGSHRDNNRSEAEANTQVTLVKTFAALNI

The assay has as its target OTU domain-containing protein 3 (Homo sapiens) (UniProt Q5T2D3). As to the kind of experiment: Validation of screening hits, potency titration, in vitro enzymatic, OTU domain-containing protein 3 DUB inhibitors (AID 1645868). Conditions: purified OTUD3, ubiquitin-rhodamine cleavage fluorescence, 2 h.
Consider `O=C(CSc1nnc(Cn2cnc3ccccc32)o1)Nc1ccc([N+](=O)[O-])cc1`, for which the IC50 was 20.2 µM. For the compound `Cc1ccc(Cn2cc(-c3noc(-c4ccc[nH]4)n3)nn2)cc1`, the IC50 was 19.8 µM. As for `O=C(CSc1nc2ccncc2[nH]1)Nc1ccc(Br)cc1F`, the IC50 is 49.8 µM. For the compound `CSc1ccccc1C(=O)Nc1nc(-c2ccncc2)cs1`, the IC50 is 46.3 µM. `O=C(COc1nsnc1N1CCOCC1)Nc1ccc(F)c(F)c1`: the IC50 is > 50 µM (inactive).

As to `COc1ccc(NC(=O)CN2CCN(c3ccc(C(C)=O)cc3)CC2)cc1S(=O)(=O)N1CCCCC1`, the IC50 is > 50 µM (inactive). To `CSc1ccccc1C(=O)Nc1sc2c(c1C(N)=O)CCC(C)C2` (stereo not drawn) belongs 22.1 µM; to `O=C(COc1ccc(Cl)cc1)Nc1noc(-c2ccccc2)n1`, 29.2 µM. `Cc1nn(-c2ccc(F)cc2)cc1-c1noc(C(=O)NCc2ccccn2)n1`: the IC50 is 25.1 µM. As to `CCn1c(=O)c2ccccc2n(Cc2nc(-c3ccccc3OC)no2)c1=O`, the IC50 is > 50 µM (inactive). Turning to `CC(C)c1nc2sc3c(N(CCO)CCO)ncnc3c2c2c1COC(C)(C)C2`, the IC50 is > 50 µM (inactive).

`CC1(C(=O)NCc2ccccc2)Cn2c(cc3ccccc32)C(=O)N1Cc1ccccc1` (stereo not drawn): the IC50 was > 50 µM (inactive). `CCOc1ccc(C2=NCCNC3=C2C(c2ccccc2)N(c2ccccc2)C3=O)cc1` (stereo not drawn): the IC50 is > 50 µM (inactive). Turning to `c1ccc(-c2ccc(NCc3ccc4c(c3)OCO4)nn2)cc1`, the IC50 was 23.1 µM. `COc1ccc(CN=C2NS(=O)(=O)C(c3ccc(F)cc3)=C2C)cc1OC`: the IC50 is > 50 µM (inactive). In the case of `O=C(Nc1ccccc1)c1cn(-c2cc(N3CCCC3)ncn2)cn1`, the IC50 is > 50 µM (inactive). As to `CC1CCCN(CCCNC(=O)c2ccc(N3CCc4ccccc43)s2)C1` (stereo not drawn), the IC50 is > 50 µM (inactive). On to `COc1ccc(CCNC(=O)c2c(N)n(-c3cccc(Cl)c3)c3nc4ccccc4nc23)cc1`, for which the IC50 was > 50 µM (inactive). In the case of `O=C(Nc1ccc2c(c1)OCO2)c1[nH]nc2c1CCc1ccccc1-2`, the IC50 was > 50 µM (inactive). Consider `COC(=O)c1ccc2c(=O)n(CCCCCC(=O)NCc3cccc(Cl)c3)c(=O)[nH]c2c1`, for which the IC50 is 3.22 µM. On to `O=C(c1ccco1)N1CCCC2(C1)Nc1cccnc1NC2=NC1CCCC1` (stereo not drawn), for which the IC50 was > 50 µM (inactive).

Take `Cn1c(COc2ccccc2)nnc1SCC(=O)Nc1ccc(N2CCOCC2)cc1`: the IC50 is 22.5 µM. Turning to `COc1ccc(COc2ccc3c(C)c(CC(=O)N4CC[C@@]5(O)CCCC[C@H]5C4)c(=O)oc3c2)cc1`, the IC50 is 4.62 µM. As for `COc1ccc2nc(SCC(=O)Nc3ccc(NC(C)=O)cc3)c(C)cc2c1`, the IC50 was 31.9 µM.

For `CC(C)NS(=O)(=O)c1ccc(OCC(=O)N2CCC(Cc3ccccc3)CC2)cc1`, the IC50 is > 50 µM (inactive). `Cc1ccc(CNC(=O)CCCn2c(=O)c3sccc3n(CC(=O)OCc3ccccc3)c2=O)cc1`: the IC50 is 3.54 µM. As for `CCc1ccccc1NC(=O)c1cc(-c2ccccn2)n[nH]1`, the IC50 is > 50 µM (inactive). On to `CSc1cccc(NC(=O)CCc2ccc3nc(NC(C)=O)sc3c2)c1`, for which the IC50 is > 50 µM (inactive). `O=C1NC(=O)/C(=C/c2ccc(OC(=O)c3ccc(Cl)cc3Cl)cc2)N1`: the IC50 is 11 µM.

As to `CCCCN(C)C(=O)c1cc2c(=O)n3cccc(C)c3nc2n1Cc1ccccc1`, the IC50 is > 50 µM (inactive). Take `COc1cccc(NC(=O)Nc2ccc3nc4n(c(=O)c3c2)CCCC4)c1`: the IC50 is > 50 µM (inactive).

For the compound `O=C(NCc1ccc2c(c1)OCO2)c1cc2c(s1)-c1ccccc1OC2`, the IC50 is 21.7 µM. As for `CCn1cc2c(n1)c(=O)n(Cc1ccc(C)cc1)c(=O)n2CC(=O)Nc1ccc(F)cc1`, the IC50 was 22.7 µM. With `O=C(Nc1ccc2c(c1)OCCO2)Nc1nnc(CC(=O)N2CCCCC2)s1` the figure was > 50 µM (inactive). Regarding `CCN(CC)C(=O)c1sc(NC(=O)/C=C/c2c(F)cccc2Cl)c(C#N)c1C`, the IC50 is > 50 µM (inactive). On to `COc1cccc(N2C(=O)N(CC(=O)NCc3ccc(Cl)cc3)c3ccccc3S2(=O)=O)c1`, for which the IC50 is 20 µM. As for `O=C(Cn1c(=O)nc(-c2ccccc2)c2ccccc21)NCc1ccc2c(c1)OCO2`, the IC50 was 22.3 µM. To `O=C(CNc1nc(Nc2ccccc2F)nc(Nc2ccccc2F)n1)Nc1ccccc1` belongs 42 µM; to `COc1cc([C@@H]2c3cc4c(cc3C[C@@H]3COC(=O)[C@H]32)OCO4)cc(OC)c1OC`, 20.5 µM; to `O=C(c1ccco1)N1CCC2(CC1)CC1(CO2)Nc2ccccc2-n2cccc21` (stereo not drawn), > 50 µM (inactive).

In the case of `COc1ccccc1-c1nc(-c2cn(-c3ccc(C)cc3)nn2)no1`, the IC50 is > 50 µM (inactive). `C[C@@H](C(=O)NCc1ccc(F)cc1)N1C(=O)N2CCc3c([nH]c4ccccc34)[C@@]2(C)C1=O`: the IC50 was 24.1 µM. Turning to `N#Cc1ccccc1Cn1c(=O)n(Cc2ccco2)c(=O)c2ccccc21`, the IC50 is > 50 µM (inactive). With `Cc1ccc2oc(=O)c(S(=O)(=O)N3CCCCC3)cc2c1`, the IC50 was 43.1 µM.

In the case of `CSc1ccc(CNCc2c(C(=O)O)n(Cc3ccccc3)c3cc(C)ccc23)cc1`, the IC50 is > 50 µM (inactive). Turning to `COc1ccc(-c2cnnn2-c2ccc(NC(=O)c3c(F)cccc3F)cc2)cc1OC`, the IC50 is > 50 µM (inactive). For the compound `Cc1ccc(Nc2nc(O)c(CC(=O)Nc3ccccc3C)s2)cc1C`, the IC50 is 20 µM. Take `Cc1cccc(O)c1-c1nc2c(-c3nc4c(C(=O)O)cccc4o3)cccc2o1`: the IC50 is > 50 µM (inactive).

Regarding `O=c1c(S(=O)(=O)c2cc(F)cc(F)c2)c[nH]c2cc(Cl)ccc12`, the IC50 is 40.1 µM. In the case of `O=C1C=CC(O)C2C1CC13SSC4(CC5C(=O)C=CC(O)C5N4C1=O)C(=O)N23` (stereo not drawn), the IC50 is > 50 µM (inactive). `Cc1ccc(NC(=O)/C=C/c2cccc(C(F)(F)F)c2)c(O)c1`: the IC50 was 30.5 µM. Regarding `Cc1c(C(=O)Nc2cccc(C(F)(F)F)c2)cnn1-c1ccccn1`, the IC50 is > 50 µM (inactive). For `Cc1cccc(C(=O)Nc2cccc(SC(C(=O)Nc3ccc(O)c(C(=O)O)c3)c3ccccc3)c2)c1` (stereo not drawn), the IC50 was 24.1 µM. Regarding `CNc1nc2c(c(=O)n1C)CN(C(=O)Nc1cccc3ccccc13)CC2`, the IC50 is > 50 µM (inactive). On to `COc1ccccc1S(=O)(=O)N1CC[C@@H]2CN(C)[C@@H]2C1`, for which the IC50 was > 50 µM (inactive). Regarding `Cc1nnc(NCc2cccnc2)c2c1nnn2Cc1ccccc1Cl`, the IC50 is > 50 µM (inactive). As to `CN1CCN(c2ccc3nc(-c4ccccc4)c(-c4ccccc4)nc3c2)CC1`, the IC50 is > 50 µM (inactive). For `Cn1c2ccccc2c2ncn(Cc3ccc(F)cc3)c(=O)c21`, the IC50 is > 50 µM (inactive). As for `COc1cccc2c1NC(=O)C21CCN(C(=O)Nc2cccc3ccccc23)CC1`, the IC50 was > 50 µM (inactive). With `CCN(CCCNC(=O)c1ccc(Cn2c(=O)[nH]c3ccccc3c2=O)cc1)c1ccccc1`, the IC50 was 17.4 µM. As for `Cc1nc2ccccn2c1C1(O)C(=O)Nc2c(Cl)cc(Cl)cc21` (stereo not drawn), the IC50 was > 50 µM (inactive).

For `O=C(CCCCn1c(=O)c2ccccc2n(CC(=O)Nc2ccc(F)c(Cl)c2)c1=O)NCc1ccco1`, the IC50 is > 50 µM (inactive).

For the compound `O=C(CSc1ncnc2c1oc1ccccc12)NC1CCCC1`, the IC50 is 24.4 µM.
